Assays:
Assay in all cases: relative viability (nuclei count vs DMSO), 5 days (fraction); higher = more cells survive
VE-821 + Navitoclax = compound: CS(=O)(=O)c1ccc(-c2cnc(N)c(C(=O)Nc3ccccc3)n2)cc1 [VE-821] + CC1(C)CCC(c2ccc(Cl)cc2)=C(CN2CCN(c3ccc(C(=O)NS(=O)(=O)c4ccc(N[C@H](CCN5CCOCC5)CSc5ccccc5)c(S(=O)(=O)C(F)(F)F)c4)cc3)CC2)C1 [Navitoclax] (partner 0.5 µM)
Procedure, shortened: (§1)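 After 5 days of treatment, lung cancer cells in 1536-well plates were fixed and stained in a single step (final 0.05% Triton X-100, 1% formaldehyde, 1 ug/ml Hoechst) and their nuclei counted on 4× images. Treatment had been applied by pin tool the day after seeding as one drug alone or as a fixed anchor-drug dose with five library-drug doses (not always all listed) in √10 steps. Relative viability is the nuclei count of treated wells divided by that of vehicle wells, and values are medians of duplicate plates.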

VE-821 + Lapatinib = compound: CS(=O)(=O)c1ccc(-c2cnc(N)c(C(=O)Nc3ccccc3)n2)cc1 [VE-821] + CS(=O)(=O)CCNCc1ccc(-c2ccc3ncnc(Nc4ccc(OCc5cccc(F)c5)c(Cl)c4)c3c2)o1 [Lapatinib] (partner 2 µM)
Procedure, shortened: as §1

Vismodegib + Vorinostat = compound: CS(=O)(=O)c1ccc(C(=O)Nc2ccc(Cl)c(-c3ccccn3)c2)c(Cl)c1 [Vismodegib] + O=C(CCCCCCC(=O)Nc1ccccc1)NO [Vorinostat] (partner 1 µM)
Procedure, shortened: as §1

Ruxolitinib + Dasatinib = compound: N#CC[C@H](C1CCCC1)n1cc(-c2ncnc3[nH]ccc23)cn1 [Ruxolitinib] + Cc1nc(Nc2ncc(C(=O)Nc3c(C)cccc3Cl)s2)cc(N2CCN(CCO)CC2)n1 [Dasatinib] (partner 0.075 µM)
Procedure, shortened: as §1

| Cell Line | relative viability (VE-821 + Navitoclax; first compound 0.08 µM) | relative viability (VE-821 + Navitoclax; first compound 0.253 µM) | relative viability (VE-821 + Navitoclax; first compound 0.8 µM) | relative viability (VE-821 + Navitoclax; first compound 2.53 µM) | relative viability (VE-821 + Navitoclax; first compound 8 µM) | relative viability (VE-821 + Lapatinib; first compound 0.08 µM) | relative viability (VE-821 + Lapatinib; first compound 0.253 µM) | relative viability (VE-821 + Lapatinib; first compound 0.8 µM) | relative viability (VE-821 + Lapatinib; first compound 2.53 µM) | relative viability (VE-821 + Lapatinib; first compound 8 µM) | relative viability (Vismodegib + Vorinostat; first compound 0.08 µM) | relative viability (Vismodegib + Vorinostat; first compound 0.253 µM) | relative viability (Vismodegib + Vorinostat; first compound 0.8 µM) | relative viability (Vismodegib + Vorinostat; first compound 2.53 µM) | relative viability (Vismodegib + Vorinostat; first compound 8 µM) | relative viability (Ruxolitinib + Dasatinib; first compound 0.08 µM) | relative viability (Ruxolitinib + Dasatinib; first compound 0.253 µM) | relative viability (Ruxolitinib + Dasatinib; first compound 0.8 µM) | relative viability (Ruxolitinib + Dasatinib; first compound 2.53 µM) | relative viability (Ruxolitinib + Dasatinib; first compound 8 µM) |
| --- | --- | --- | --- | --- | --- | --- | --- | --- | --- | --- | --- | --- | --- | --- | --- | --- | --- | --- | --- | --- |
| HCC-78 | 0.831 | 0.783 | 0.707 | 1.04 | 0.654 | 1.06 | 0.795 | 0.371 | 1.03 | 0.255 | 0.425 | 0.403 | 0.453 | 0.492 | 0.42 | 0.39 | 0.319 | 0.387 | 0.354 | 0.323 |
| HCC-366 | 1.34 | 1.02 | 0.925 | 1.02 | 0.0801 | 1.1 | 1.03 | 0.883 | 0.406 | 0.064 | 0.46 | 0.37 | 0.25 | 0.354 | 0.285 | 0.646 | 0.547 | 0.595 | 0.431 | 0.52 |
| HCC-827 | 1.05 | 1.02 | 1.07 | 1.02 | 1.01 | 0.221 | 0.201 | 0.189 | 0.201 | 0.209 | 0.878 | 0.903 | 0.909 | 0.774 | 0.861 | 0.133 | 0.3 | 0.346 | 0.231 | 0.199 |
| HOP-62 | 1.22 | 0.91 | 1.16 | 1.17 | 1.12 | 1.16 | 1.03 | 0.958 | 1.06 | 0.947 | 0.681 | 0.591 | 0.535 | 0.58 | 0.469 | 0.698 | 0.588 | 0.739 | 0.557 | 0.342 |
| IA-LM | 0.855 | 0.71 | 0.755 | 0.92 | 0.527 | 1.03 | 0.744 | 0.821 | 0.83 | 0.501 | 0.735 | 0.951 | 0.843 | 0.947 | 1.03 | – | – | – | – | – |
| LC-2-ad | 0.587 | 0.413 | 0.566 | 0.622 | 0.291 | 1.06 | 1.01 | 1.08 | 1.07 | 0.963 | 0.7 | 0.729 | 0.701 | 0.667 | 0.529 | – | 0.476 | 0.54 | 0.382 | 0.272 |
| LCLC-97TM1 | 0.58 | 0.546 | 0.418 | 0.494 | 0.43 | 0.75 | 0.716 | 0.669 | 0.848 | 0.393 | 0.731 | 0.64 | 0.656 | 0.632 | 0.42 | 0.912 | 0.731 | 0.712 | 0.62 | 0.623 |
| LCLC-103H | – | – | – | – | – | – | – | – | – | – | 0.74 | 0.733 | 0.613 | 0.749 | 0.539 | 0.418 | 0.448 | 0.564 | 0.382 | 0.362 |
| LK-2 | 0.996 | 0.965 | 0.767 | 1.06 | 0.97 | 1.18 | 0.891 | 0.891 | 0.906 | 0.874 | 0.246 | 0.31 | 0.294 | 0.286 | 0.239 | 0.287 | 0.339 | 0.332 | 0.32 | 0.349 |
| LOU-NH91 | 0.75 | 0.732 | 0.592 | 0.777 | 0.564 | 0.758 | 0.821 | 0.764 | 0.697 | 0.655 | 0.884 | 0.899 | 0.793 | 0.845 | 0.885 | – | 0.461 | 0.556 | 0.496 | 0.439 |
| NCI-H358 | – | – | – | – | – | 0.445 | 0.376 | 0.486 | 0.553 | 0.489 | 0.831 | 0.677 | 0.696 | 0.68 | 0.728 | 0.189 | 0.131 | 0.175 | 0.135 | 0.164 |
| NCI-H441 | 0.858 | 0.673 | 0.38 | 0.768 | 0.563 | – | – | – | – | – | 0.875 | – | 0.552 | 0.678 | 0.839 | 0.507 | 0.432 | 0.698 | 0.396 | 0.672 |
| NCI-H522 | – | – | – | – | – | – | – | – | – | – | 1.02 | 0.886 | 0.808 | 0.941 | 0.806 | 0.751 | 1.03 | 0.916 | 0.919 | 0.731 |
| NCI-H650 | – | – | – | – | – | 0.887 | 0.929 | 0.903 | 0.957 | 0.982 | 0.434 | 0.413 | 0.353 | 0.392 | 0.488 | – | 0.366 | 0.453 | 0.295 | 0.293 |
| NCI-H661 | – | – | – | – | – | 0.592 | 0.427 | 0.396 | 0.486 | 0.381 | 0.785 | 0.768 | 0.841 | 0.737 | 0.763 | 0.964 | 0.872 | 1.03 | 0.695 | 0.498 |
| NCI-H1299 | 1.05 | 1.04 | 1.01 | 1 | 1.03 | 0.948 | 0.885 | 0.915 | 0.913 | 0.771 | – | – | – | – | – | – | – | – | – | – |
| NCI-H1563 | – | – | – | – | – | 0.92 | 0.981 | 0.812 | 0.912 | 0.792 | – | – | – | – | – | 0.446 | 0.481 | 0.452 | 0.43 | 0.402 |
| NCI-H1623 | – | – | – | – | – | – | – | – | – | – | – | – | – | – | – | 0.591 | 0.512 | 0.488 | 0.699 | 0.474 |
| NCI-H1648 | – | – | – | – | – | – | – | – | – | – | 0.607 | 0.757 | 0.389 | 0.465 | 0.512 | – | – | – | – | – |
| NCI-H1703 | 1.25 | 0.923 | 1.17 | 0.394 | 0.246 | 1.21 | 1 | 1.06 | 0.547 | 0.328 | – | – | – | – | – | – | – | – | – | – |
| NCI-H1792 | 0.66 | 0.639 | 0.63 | 0.685 | 0.623 | 1.04 | 0.964 | 0.913 | 0.966 | 0.816 | – | – | – | – | – | 0.664 | 0.664 | 0.675 | 0.541 | 0.466 |
| NCI-H2342 | – | – | – | – | – | – | – | – | – | – | 0.747 | 0.597 | 0.805 | 0.735 | 0.652 | 0.315 | 0.299 | 0.341 | 0.31 | 0.319 |
| SW 900 | – | – | – | – | – | – | – | – | – | – | 0.457 | 0.415 | 0.435 | – | 0.602 | 0.675 | 0.487 | 0.542 | 0.403 | 0.489 |
